Where a SMILES comes first, the peptide text is derived from it. [ ]: non-standard residue; d: D form. The star is where a group is joined. NHCH2CH2OH = OCCN*; For = O=C*
Columns and labels:
[1] = H+/Na+ transport assay of bead-derived peptides (one-point); assay type: biochemical; parameters: key: relative activity; mean of two control wells = 1.00; settings: bead-derived peptide solution, EYPC/EYPG LUVs;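 note: relative to parent gramicidin A activity set to 1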
Outline: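 H+/Na+ transport is monitored through pyranine fluorescence in freshly extruded LUVs after a 30-min room-temperature vortex with each library peptide at a single concentration. Signals are normalized to detergent (Triton X-100) and untreated controls.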

[2] = cell viability/%
Outline: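 Peptide stocks diluted 250× in growth medium; P388 cells 1 × 10^4 cells/mL final; 37 °C, 5% CO2, 92 h. WST-1 + 1-methoxy PMS, 4 h, A415. Output: % viability.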

[3] = tested on: Streptococcus pyogenes SSI-9; experiment: Antibacterial activity assay of bead-derived peptides (three concentrations); assay type: cell-based; parameters: key: +++: inhibition by the 640-fold diluted peptide solution; ++: inhibition by the 160-fold diluted solution; +: inhibition by the 40-fold diluted solution; -: no inhibition; settings: S. pyogenes, bead-derived peptide solution, three concentrations
Outline: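 First, each peptide stock was diluted 4- and 16-fold in DMSO; next, the three solutions were mixed with S. pyogenes SSI-9 suspension (2 × 10^5 CFU) in cation-adjusted Mueller Hinton Broth plus 5% laked horse blood; finally, plates stood 18 h at 37 °C before checking for grown-cell precipitation.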

In the case of `CC(C)C[C@@H](NC(=O)[C@H](C)NC(=O)CNC(=O)[C@@H](NC=O)C(C)C)C(=O)N[C@@H](C)C(=O)N[C@@H](C(=O)N[C@H](C(=O)N[C@H](CC(C)C)C(=O)N[C@@H](Cc1c[nH]c2ccccc12)C(=O)N[C@H](CC(C)C)C(=O)N[C@@H](Cc1c[nH]c2ccccc12)C(=O)N[C@@H](C(=O)N[C@@H](Cc1c[nH]c2ccccc12)C(=O)N[C@@H](C(=O)N[C@@H](Cc1c[nH]c2ccccc12)C(=O)NCCO)C(C)C)[C@H](C)O)C(C)C)[C@H](C)O` [compound 381] (For-VGA[dL]A[dT]V[dL]W[dL]W[dT]W[dV]W-NHCH2CH2OH), the “H+/Na+ transport activity normalized against the value of 1 (1.00)” value (from here on “H+/Na+ transport activity normalized”) [1] is reported as 1.03, the viability [2] is reported as 100% and the antibacterial activity [3] is reported as “-”.
In the case of `CC(C)C[C@@H](NC(=O)[C@H](C)NC(=O)[C@H](NC(=O)[C@H](C)NC(=O)CNC(=O)[C@@H](NC=O)C(C)C)C(C)C)C(=O)N[C@H](C(=O)N[C@@H](C(=O)N[C@@H](Cc1c[nH]c2ccccc12)C(=O)N[C@@H](C(=O)N[C@@H](Cc1c[nH]c2ccccc12)C(=O)N[C@@H](C(=O)N[C@@H](Cc1c[nH]c2ccccc12)C(=O)N[C@H](CC(C)C)C(=O)N[C@@H](Cc1c[nH]c2ccccc12)C(=O)NCCO)C(C)C)C(C)C)C(C)C)C(C)C` [compound 437] (For-VGA[dV]A[dL]V[dV]W[dV]W[dV]W[dL]W-NHCH2CH2OH), the “H+/Na+ transport activity normalized” value [1] is reported as 1.11, the viability [2] is reported as 100% and the antibacterial activity [3] is reported as “+”.
For `CC(C)C[C@@H](NC(=O)[C@H](Cc1c[nH]c2ccccc12)NC(=O)[C@@H](CC(C)C)NC(=O)[C@@H](NC(=O)[C@H](NC(=O)[C@H](C)NC(=O)[C@H](NC(=O)[C@H](C)NC(=O)CNC(=O)[C@@H](NC=O)C(C)C)C(C)C)C(C)C)C(C)C)C(=O)N[C@@H](Cc1c[nH]c2ccccc12)C(=O)N[C@H](CC(C)C)C(=O)N[C@@H](Cc1c[nH]c2ccccc12)C(=O)N[C@@H](C(=O)N[C@@H](Cc1c[nH]c2ccccc12)C(=O)NCCO)C(C)C` [compound 511] (For-VGA[dV]A[dV]V[dL]W[dL]W[dL]W[dV]W-NHCH2CH2OH), the “H+/Na+ transport activity normalized” value [1] was 1.01, the viability [2] was 1.8% and the antibacterial activity [3] was “++”.
For `CC(C)C[C@@H](NC(=O)[C@H](Cc1c[nH]c2ccccc12)NC(=O)[C@H](NC(=O)[C@H](Cc1c[nH]c2ccccc12)NC(=O)[C@@H](CC(C)C)NC(=O)[C@H](Cc1c[nH]c2ccccc12)NC(=O)[C@H](NC(=O)[C@@H](NC(=O)[C@H](NC(=O)[C@H](C)NC(=O)[C@H](NC(=O)[C@H](C)NC(=O)CNC(=O)[C@@H](NC=O)C(C)C)C(C)C)C(C)C)C(C)C)C(C)C)[C@H](C)O)C(=O)N[C@@H](Cc1c[nH]c2ccccc12)C(=O)NCCO` [compound 521] (For-VGA[dV]A[dV]V[dV]W[dL]W[dT]W[dL]W-NHCH2CH2OH), the “H+/Na+ transport activity normalized” value [1] was 1.05, the viability [2] was 100% and the antibacterial activity [3] was “+”.
For `CC(C)C[C@@H](NC(=O)[C@H](C)NC(=O)[C@H](NC(=O)[C@H](C)NC(=O)CNC(=O)[C@@H](NC=O)C(C)C)C(C)C)C(=O)N[C@H](C(=O)N[C@H](CC(C)C)C(=O)N[C@@H](Cc1c[nH]c2ccccc12)C(=O)N[C@H](CC(C)C)C(=O)N[C@@H](Cc1c[nH]c2ccccc12)C(=O)N[C@H](CC(C)C)C(=O)N[C@@H](Cc1c[nH]c2ccccc12)C(=O)N[C@H](CC(C)C)C(=O)N[C@@H](Cc1c[nH]c2ccccc12)C(=O)NCCO)C(C)C` [compound 527] (For-VGA[dV]A[dL]V[dL]W[dL]W[dL]W[dL]W-NHCH2CH2OH), the “H+/Na+ transport activity normalized” value [1] was 1.16, the viability [2] was 5.9% and the antibacterial activity [3] was “++”.
For `CC(C)[C@H](NC=O)C(=O)NCC(=O)N[C@@H](C)C(=O)N[C@@H](C(=O)N[C@@H](C)C(=O)N[C@@H](C(=O)N[C@H](C(=O)N[C@@H](C(=O)N[C@@H](Cc1c[nH]c2ccccc12)C(=O)N[C@@H](C(=O)N[C@@H](Cc1c[nH]c2ccccc12)C(=O)N[C@@H](C(=O)N[C@@H](Cc1c[nH]c2ccccc12)C(=O)N[C@@H](C(=O)N[C@@H](Cc1c[nH]c2ccccc12)C(=O)NCCO)C(C)C)C(C)C)[C@H](C)O)C(C)C)C(C)C)C(C)C)C(C)C` [compound 532] (For-VGA[dV]A[dV]V[dV]W[dT]W[dV]W[dV]W-NHCH2CH2OH), the “H+/Na+ transport activity normalized” value [1] was 1.03, the viability [2] was 100% and the antibacterial activity [3] was “-”.
With `CNC(=O)C[C@@H](NC(=O)[C@@H](NC(=O)[C@@H](CC(C)C)NC(=O)[C@H](C)NC(=O)[C@H](NC(=O)[C@H](C)NC(=O)CNC(=O)[C@@H](NC=O)C(C)C)C(C)C)C(C)C)C(=O)N[C@@H](Cc1c[nH]c2ccccc12)C(=O)N[C@@H](C(=O)N[C@@H](Cc1c[nH]c2ccccc12)C(=O)N[C@H](CC(C)C)C(=O)N[C@@H](Cc1c[nH]c2ccccc12)C(=O)N[C@H](CC(C)C)C(=O)N[C@@H](Cc1c[nH]c2ccccc12)C(=O)NCCO)C(C)C` [compound 603] (For-VGA[dV]A[dL]V[dD](NHMe)W[dV]W[dL]W[dL]W-NHCH2CH2OH) the “H+/Na+ transport activity normalized” value [1] was 1.10, the viability [2] was 100% and the antibacterial activity [3] was “-”.
For `CC(C)C[C@@H](NC(=O)[C@H](C)NC(=O)CNC(=O)[C@@H](NC=O)C(C)C)C(=O)N[C@@H](C)C(=O)N[C@@H](C(=O)N[C@H](C(=O)N[C@H](CC(C)C)C(=O)N[C@@H](Cc1c[nH]c2ccccc12)C(=O)N[C@@H](C(=O)N[C@@H](Cc1c[nH]c2ccccc12)C(=O)N[C@H](CC(C)C)C(=O)N[C@@H](Cc1c[nH]c2ccccc12)C(=O)N[C@H](CC(C)C)C(=O)N[C@@H](Cc1c[nH]c2ccccc12)C(=O)NCCO)C(C)C)C(C)C)[C@H](C)O` [compound 611] (For-VGA[dL]A[dT]V[dL]W[dV]W[dL]W[dL]W-NHCH2CH2OH), the “H+/Na+ transport activity normalized” value [1] was 1.05, the viability [2] was 100% and the antibacterial activity [3] was “-”.
With `CC(C)C[C@@H](NC(=O)[C@H](Cc1c[nH]c2ccccc12)NC(=O)[C@H](NC(=O)[C@@H](NC(=O)[C@H](NC(=O)[C@H](C)NC(=O)[C@H](NC(=O)[C@H](C)NC(=O)CNC(=O)[C@@H](NC=O)C(C)C)[C@H](C)O)C(C)C)C(C)C)C(C)C)C(=O)N[C@@H](Cc1c[nH]c2ccccc12)C(=O)N[C@@H](C(=O)N[C@@H](Cc1c[nH]c2ccccc12)C(=O)N[C@@H](C(=O)N[C@@H](Cc1c[nH]c2ccccc12)C(=O)NCCO)C(C)C)C(C)C` [compound 629] (For-VGA[dT]A[dV]V[dV]W[dL]W[dV]W[dV]W-NHCH2CH2OH) the “H+/Na+ transport activity normalized” value [1] was 1.12, the viability [2] was 100% and the antibacterial activity [3] was “-”.
In the case of `CC(C)C[C@@H](NC(=O)[C@H](C)NC(=O)CNC(=O)[C@@H](NC=O)C(C)C)C(=O)N[C@@H](C)C(=O)N[C@@H](C(=O)N[C@H](C(=O)N[C@@H](C(=O)N[C@@H](Cc1c[nH]c2ccccc12)C(=O)N[C@@H](C(=O)N[C@@H](Cc1c[nH]c2ccccc12)C(=O)N[C@@H](C(=O)N[C@@H](Cc1c[nH]c2ccccc12)C(=O)N[C@@H](C(=O)N[C@@H](Cc1c[nH]c2ccccc12)C(=O)NCCO)C(C)C)C(C)C)C(C)C)C(C)C)C(C)C)C(C)C` [compound 725] (For-VGA[dL]A[dV]V[dV]W[dV]W[dV]W[dV]W-NHCH2CH2OH), the “H+/Na+ transport activity normalized” value [1] is reported as 1.10, the viability [2] is reported as 100% and the antibacterial activity [3] is reported as “+”.
In the case of `CC(C)C[C@@H](NC(=O)[C@H](C)NC(=O)CNC(=O)[C@@H](NC=O)C(C)C)C(=O)N[C@@H](C)C(=O)N[C@@H](C(=O)N[C@H](C(=O)N[C@@H](C(=O)N[C@@H](Cc1c[nH]c2ccccc12)C(=O)N[C@@H](C(=O)N[C@@H](Cc1c[nH]c2ccccc12)C(=O)N[C@@H](C(=O)N[C@@H](Cc1c[nH]c2ccccc12)C(=O)N[C@@H](C(=O)N[C@@H](Cc1c[nH]c2ccccc12)C(=O)NCCO)[C@H](C)O)C(C)C)C(C)C)C(C)C)C(C)C)C(C)C` [compound 762] (For-VGA[dL]A[dV]V[dV]W[dV]W[dV]W[dT]W-NHCH2CH2OH), the “H+/Na+ transport activity normalized” value [1] is reported as 1.01, the viability [2] is reported as 96.8% and the antibacterial activity [3] is reported as “-”.
For `CC(C)C[C@@H](NC(=O)[C@H](C)NC(=O)CNC(=O)[C@@H](NC=O)C(C)C)C(=O)N[C@@H](C)C(=O)N[C@H](CC(C)C)C(=O)N[C@H](C(=O)N[C@H](CC(C)C)C(=O)N[C@@H](Cc1c[nH]c2ccccc12)C(=O)N[C@@H](C(=O)N[C@@H](Cc1c[nH]c2ccccc12)C(=O)N[C@H](CC(C)C)C(=O)N[C@@H](Cc1c[nH]c2ccccc12)C(=O)N[C@@H](C(=O)N[C@@H](Cc1c[nH]c2ccccc12)C(=O)NCCO)[C@H](C)O)C(C)C)C(C)C` [compound 770] (For-VGA[dL]A[dL]V[dL]W[dV]W[dL]W[dT]W-NHCH2CH2OH), the “H+/Na+ transport activity normalized” value [1] was 1.11, the viability [2] was 100% and the antibacterial activity [3] was “-”.
In the case of `CC(C)C[C@@H](NC(=O)[C@H](C)NC(=O)[C@H](NC(=O)[C@H](C)NC(=O)CNC(=O)[C@@H](NC=O)C(C)C)[C@H](C)O)C(=O)N[C@H](C(=O)N[C@H](CC(C)C)C(=O)N[C@@H](Cc1c[nH]c2ccccc12)C(=O)N[C@H](CC(C)C)C(=O)N[C@@H](Cc1c[nH]c2ccccc12)C(=O)N[C@@H](C(=O)N[C@@H](Cc1c[nH]c2ccccc12)C(=O)N[C@H](CC(C)C)C(=O)N[C@@H](Cc1c[nH]c2ccccc12)C(=O)NCCO)C(C)C)C(C)C` [compound 789] (For-VGA[dT]A[dL]V[dL]W[dL]W[dV]W[dL]W-NHCH2CH2OH), the “H+/Na+ transport activity normalized” value [1] is reported as 1.08, the viability [2] is reported as 100% and the antibacterial activity [3] is reported as “-”.

Reference: paper PMC7531004, “Discovery of gramicidin A analogues with altered activities by multidimensional screening of a one-bead-one-compound library” (Nature Communications, 2020)
